In US5478812A, “Chromanol glycoside and method for production thereof” (CCI Corporation, priority 1993, dated 1995):
In brackets after ≈: the same amount, converted by molar mass. Where two headings read alike, the source gives them in different places.

Tests used:
[1] = thermal stability; type: physicochemical; conditions: 5 mM solution in water/ethanol 1:3 v/v, read-out: Residual amounts (%) after 100 hours
From the text: The chromanol glycoside obtained in Examples 1 to 5 [6-hydroxy-2,5,7,8-tetramethyl chroman-2-methyl-α-D-glucopyranoside represented by the aforementioned formula (4)], the chromanol glycoside obtained in Examples 6 to 8 [6-hydroxy-2,5,7,8-tetramethyl chroman-2-ethyl-α-D-glucopyranoside represented by the aforementioned formula (7)], the chromanol glycoside obtained in Examples 4 and 5 [6-hydroxy-2,5,7,8-tetramethyl chroman-2methyl-α-D-maltopyranoside represented by the aforementioned formula (5)], and the chromanol glycoside obtained in Example 8 [6-hydroxy-2,5,7,8-tetramethyl chroman-2-ethyl-α-D-maltopyranoside represented by the aforementioned formula (8)]were tested for thermal stability. Specifically, this test was performed by incubating a 5 mM chromanol glycoside solution (water/ethanol, 1:3 v/v) under varying temperature conditions. At regular intervals, aliquots of the reaction mixture were withdrawn and the residual amounts of chromanol glycoside were measured by HPLC. For the purpose of comparison, the 2-substituted alcohols represented by the aforementioned formulas (3) and (6), α-tocopherol, and Trolox were similarly tested.
It is clearly noted from these test results that the conversion of 2-substituted alcohols into corresponding glycosides enhances thermal stability.

[2] = pH stability; type: physicochemical; conditions: 5.5 mM, buffer/ethanol 5:1 v/v; for remaining at 100 h, 5500 µM: read-out: Residual amounts (%) after 100 hours; for Residual amounts (%) after 100 hours: 5500 µM
From the text: The chromanol glycoside obtained in Examples 1 to 5 [6-hydroxy-2,5,7,8-tetramethyl chroman-2-methyl-α-D-glucopyranoside represented by the aforementioned formula (4)], the chromanol glycoside obtained in Examples 6 to 8 [6-hydroxy-2,5,7,8-tetramethyl chroman-2-ethyl-α-D-glucopyranoside represented by the aforementioned formula (7)], the chromanol glycoside obtained in Examples 4 and 5 [6-hydroxy-2,5,7,8-tetramethyl chroman-2-methyl-α-D-maltopyranoside represented by the aforementioned formula (5)], and the chromanol glycoside obtained in Example 8 [6 -hydroxy-2,5,7,8-tetramethyl chroman-2-ethyl-α-D-maltopyranoside represented by the aforementioned formula (8)] were tested for pH stability. This test was specifically performed by incubating a 5.5 mM chromanol glycoside solution (buffer/ethanol, 5:1 v/v) having a varying pH value. At regular intervals, aliquots of the reaction mixture were withdrawn and the residual amounts of chromanol glycoside were measured by HPC. For the purpose of comparison, the 2-substituted alcohols represented by the aforementioned formulas (3) and (6) and Trolox were similarly tested.
It is clearly noted from the test results that the conversion of 2-substituted alcohols into respective glycosides enhances pH stability. The buffer used for the test were 100 mM acetate buffer of pH 5.5, 100 mM phosphate buffer of pH 7.0, and 100 mM tris-HCl buffer of pH 8,5.

[3] = antioxidant activity using liposomal membranes (phosphatidylcholine hydroperoxides); type: biochemical; conditions: 0.1 μmol antioxidant in 1.1 ml 10 mM tris-HCl buffer pH 7.4; water-soluble radical generator; in words
From the text: Antioxidant activity on the chromanol glycoside obtained in Examples 1 to 5 [6-hydroxy-2,5,7,8-tetramethyl chroman-2-methyl-α-D-glucopyranoside represented by the aforementioned formula (4)[, the chromanol glycoside obtained in Examples 6 to 8 [6-hydroxy-2,5,7,8-tetramethyl chroman-2-ethyl-α-D-glucopyranoside represented by the aforementioned formula (7)], the chromanol glycoside obtained in Examples 4 and 5 [6-hydroxy-2,5,7,8-tetramethyl chroman-2-methyl-α-D-maltopyranoside represented by the aforementioned formula (5)], and the chromanol glycoside obtained in Example 8 [6-hydroxy-2,5,7,8-tetramethyl chroman-2-ethyl-α-D-malto-pyranoside represented by the aforementioned formula (8)] was investigated by using a liposonal membranes. Specifically, this test was performed by adjusting a reaction solution consisting of 5.5 μmol of a multilameller liposomes of egg yolk phosphatidylcholine, 16.5 μmol of a water-soluble radical generator [2,2'-azo-bis(2-amidinopropane) dihydrochloride], and 0.1 μmol of antioxidant in 1.1 ml of a 10 mM tris-HCl buffer (pH 7.4). At regular intervals, aliquots of the reaction mixture were withdrawn and the amount of phosphatidylcholine hydroperoxides were measured by HPLC.

[4] = solubility in water; type: physicochemical; conditions: 25 °C, constant stirring at 200 rpm, HPLC; for solubility: water, read-out: solubility in water (amounts of sample dissolved in 1 ml of water)
From the text: The chromanol glycoside obtained in Examples 1 to 5 [6-hydroxy-2,5,7,8-tetramethyl chroman-2-methyl-α-D-glucopyranoside represented by the aforementioned formula (4)], the chromanol glycoside obtained in Examples 6 to 8 [6-hydroxy-2,5,7,8-tetramethyl chroman-2-ethyl-α-D-glucopyranoside represented by the aforementioned formula (7)], the chromanol glycoside obtained in Examples 4 and 5 [6-hydroxy-2,5,7,8-tetramethyl chroman-2-methyl-α-D-maltopyranoside represented by the aforementioned formula (5)], and the chromanol glycoside obtained in Example 8 [6-hydroxy-2,5,7,8-tetramethyl chroman-2-ethyl-α-D-maltopyranoside represented by the aforementioned formula (8)] were tested for solubility in water. Specifically, this test was performed by adding an excess amount of a given chromanol glycoside to 1 ml of water. The reaction mixture was incubated at 25° C. for […] with constant stirring at 200 rpm. After 100 hours, the reaction mixture was transferred into a membrane filter (produced by Nihon Millipore Ltd. and marketed under trademark designation of "HPLC Sample Prep C02-LG") and insoluble substances were removed by centrifugation (4,100×g, 10 minutes, 20° C.). The filtered solution was subjected to HPLC to determine the amount of chromanol glycoside remaining in the aqueous solution. For the purpose of comparison, the 2-substituted alcohols represented by the aforementioned formulas (3) and […] and Trolox were similarly tested.
The numerals given in the tables represent the amounts of sample dissolved in 1 ml of water.

[5] = hydroperoxidation of methyl linoleate via radical chain reaction in hexane/isopropyl alcohol; type: biochemical; conditions: 0.1 μmol antioxidant in 1.1 ml hexane/isopropyl alcohol 1:1; 37 °C; oil-soluble radical generator; in words
From the text: Antioxidant activity on the chromanol glycoside obtained in Examples 1 to 5 [6-hydroxy-2,5,7,8-tetramethyl chroman-2-methyl-α-D-glucopyranoside represented by the aforementioned formula (4)], the chromanol glycoside obtained in Examples 6 to 8 [6-hydroxy-2,5,7,8-tetramethyl chroman-2-ethyl-α-D-glucopyranoside represented by the aforementioned formula (7)], the chromanol glycoside obtained in Examples 4 and 5 [6-hydroxy-2,5,7,8-tetramethyl chroman-2-methyl-α-D-maltopyranoside represented by the aforementioned formula (5)], and the chromanol glycoside obtained in Example 8 [6-hydroxy-2,5,7,8-tetramethyl chroman-2-ethyl-α-D-maltopyranoside represented by the aforementioned formula (8)] was investigated by measuring the hydroperoxidation of methyl linoleate via radical chain reaction. Specifically, this test was performed by incubating 132 μmol of methyl linoleate, 16.5 μmol of an oil-soluble radical generator [2,2'-azo-bis(2,4-dimethyl valeronitrile)], 0.1 μmol of antioxidant in 1.1 ml of a hexane/isopropyl alcohol (1:1 v/v), and the mixture was incubated at 37° C. At regular intervals, aliquots of the reaction mixture were withdrawn and the amount of methyl linoleate hydroperoxides were measured by HPLC. […] EXAMPLE 10

[6] = background statement, in words; cited from earlier work
[7] = acetate buffer/ethanol 5:1, pH 5.5, pH 5.5 (100 mM acetate buffer)
[8] = phosphate buffer/ethanol 5:1, pH 7, pH 7.0 (100 mM phosphate buffer)
[9] = tris-hcl buffer/ethanol 5:1, pH 8.5, pH 8.5 (100 mM tris-HCl buffer)

Compound	remaining at 100 h, 5000 µM ([1]; water/ethanol 1:3, 50 °C) [%]	remaining at 100 h, 5000 µM ([1]; water/ethanol 1:3, 60 °C) [%]	remaining at 100 h, 5000 µM ([1]; water/ethanol 1:3, 70 °C) [%]	remaining at 100 h, 5500 µM [2, 7] [%]	Residual amounts (%) after 100 hours ([2]; pH 5.5 (100 mM acetate buffer), listed as formula (7) of Example 7, 6000 min) [%]	Residual amounts (%) after 100 hours ([2]; pH 5.5 (100 mM acetate buffer), listed as formula (7) of Example 8, 6000 min) [%]	Residual amounts (%) after 100 hours ([2]; pH 7.0 (100 mM phosphate buffer), listed as formula (7) of Example 7, 6000 min) [%]	Residual amounts (%) after 100 hours ([2]; pH 7.0 (100 mM phosphate buffer), listed as formula (7) of Example 8, 6000 min) [%]	Residual amounts (%) after 100 hours ([2]; pH 8.5 (100 mM tris-HCl buffer), listed as formula (7) of Example 8, 6000 min) [%]	remaining at 100 h, 5500 µM [2, 8] [%]	remaining at 100 h, 5500 µM [2, 9] [%]	antioxidant activity (phosphatidylcholine hydroperoxides) [3]	solubility in water (amounts of sample dissolved in 1 ml of water) ([4]; listed as formula (7) of Example 7) [mg/mL]	solubility in water (amounts of sample dissolved in 1 ml of water) ([4]; listed as formula (7) of Example 8) [mg/mL]	solubility [4] [mg/mL]	antioxidant activity (methyl linoleate hydroperoxides) [5]	solubility in water [6]
Cc1c(C)c2c(c(C)c1O)CCC(C)(CCCC(C)CCCC(C)CCCC(C)C)O2 (stereo not drawn) [α-Tocopherol, reference compound]	85	79	30	–	–	–	–	–	–	–	–	–	–	–	–	–	–
Cc1c(C)c2c(c(C)c1O)CCC(C)(CCO[C@H]1O[C@H](CO)[C@@H](O)[C@H](O)[C@H]1O)O2 (stereo partly drawn) [formula (7), 6-hydroxy-2,5,7,8-tetramethyl chroman-2-ethyl-α-D-glucopyranoside]	–	–	–	69	71	70	26	25	8	24	7	more effective antioxidants than ascorbic acid	45	45	33	excel 3,5-tert-butyl-4-hydroxytoluene and equal α-tocopherol	–
Cc1c(C)c2c(c(C)c1O)CCC(C)(C(=O)O)O2 (stereo not drawn) [Trolox, 6-hydroxy-2,5,7,8-tetramethyl chroman-2-carboxylic acid, reference compound]	–	–	–	75	–	–	–	–	–	35	13	–	–	–	0.2 (≈ 799 µM)	–	extremely low solubility in water
